The values that follow come from article PMC11649397, “The study of halogen effect on the reactivity of the serine-targeting covalent warheads” (Frontiers in Chemistry, 2024).

One experiment addresses T1, Notum (Homo sapiens, UniProt Q6P988).
T1 sequence (Q6P988 20-496): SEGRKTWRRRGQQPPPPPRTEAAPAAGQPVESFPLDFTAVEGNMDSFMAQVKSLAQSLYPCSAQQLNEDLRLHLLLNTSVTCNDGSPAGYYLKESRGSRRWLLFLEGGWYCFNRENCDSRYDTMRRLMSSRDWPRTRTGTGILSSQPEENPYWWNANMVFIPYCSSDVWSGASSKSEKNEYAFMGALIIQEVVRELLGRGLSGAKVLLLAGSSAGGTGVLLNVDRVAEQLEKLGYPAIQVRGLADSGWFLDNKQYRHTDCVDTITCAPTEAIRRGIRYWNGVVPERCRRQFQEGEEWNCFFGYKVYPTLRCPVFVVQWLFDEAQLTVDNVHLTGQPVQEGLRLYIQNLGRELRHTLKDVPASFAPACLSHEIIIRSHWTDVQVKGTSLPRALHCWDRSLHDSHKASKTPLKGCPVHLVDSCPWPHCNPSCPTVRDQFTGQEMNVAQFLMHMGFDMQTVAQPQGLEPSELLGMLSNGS
Briefly: Inhibition assay on Notum (substrate OPTS). In kind it is biochemical. To be noted: 10 μM, selectivity screening. Here is the method: fluorogenic probe. 4 Briefly, the incubation mixtures (0.1 mL) contained Tris-HCl buffer, hPL solution (0.25 μg/mL, final concentration), porcine bile salt (0.1 mg/mL, final concentration) and each inhibitor (with different concentrations). After preincubated at 37 °C for 3 min, DDAO-ol (20 µM, final concentration) was added to initial reaction. The fluorescent signals of hydrolytic product were quantified by using the microplate reader (Spectra Max M4, Austria), with the wavelength of 600 nm and 660 nm for excitation and emission, respectively.
Inhibition assay on Notum
OPTS, a known fluorogenic probe, was used as the substrate to assess the residual activities of Notum in the presence of each tested compound. […] After preincubated at 37 °C for 1 min, OPTS was added to initiate the hydrolytic reaction and the multi-mode microplate reader (SpectraMax iD3, Molecular Devices, Austria) was used to analyze the florescence signals of the […]
The F-3, F-4, F-10-bound peptides was analysed using the nanoLC-MS/MS system, respectively.6 The purified hCES1A (150 μg, final content) was co-incubated with the small molecule inhibitor F-3/ F-4/ F-10 (100 μM, final concentration) at 4 °C and 25 °C, respectively, for 4h. […]

Another experiment deals with T2, hCES2A (Homo sapiens, UniProt O00748).
T2 sequence (O00748 27-559): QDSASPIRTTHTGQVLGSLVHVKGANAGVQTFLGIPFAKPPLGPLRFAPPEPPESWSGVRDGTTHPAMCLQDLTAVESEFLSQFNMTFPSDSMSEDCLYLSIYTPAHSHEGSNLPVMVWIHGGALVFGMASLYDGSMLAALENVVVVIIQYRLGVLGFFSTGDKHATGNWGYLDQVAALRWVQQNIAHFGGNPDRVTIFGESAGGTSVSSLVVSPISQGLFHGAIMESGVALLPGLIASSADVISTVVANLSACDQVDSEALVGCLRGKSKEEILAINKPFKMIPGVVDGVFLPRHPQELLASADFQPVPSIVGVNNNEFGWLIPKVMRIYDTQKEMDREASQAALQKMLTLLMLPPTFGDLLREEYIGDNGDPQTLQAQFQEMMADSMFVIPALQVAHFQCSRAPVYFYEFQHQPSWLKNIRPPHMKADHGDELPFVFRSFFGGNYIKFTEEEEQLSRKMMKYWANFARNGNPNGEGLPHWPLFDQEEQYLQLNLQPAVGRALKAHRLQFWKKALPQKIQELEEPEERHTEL
Briefly: Inhibition assay on hCES2A (fluorescent substrate FD). The format is biochemical. To be noted: for selective inhibitory activity on hCES2A: 10 μM, selectivity screening; for IC50: mean ± SD, n = 3. Here is the method:
1. Detailed experimental, materials, and methods
The household library of covalent fragments including D and F was from Organic Chemistry […]
Fig. S1. Partial fragment molecules of a household library targeting to serine. […]
Inhibition assay on hCES2A
Human carboxylesterase 2 (hCES2A) inhibition assays were conducted using FD, a known fluorescent substrate. 3 Briefly, hCES2A (0.4 μg/mL, final concentration) was preincubated with analytes/DMSO (as a control group) in PBS (pH 7.4) at 37 °C for 3 min. This was followed by adding the substrate FD (4 μM, final concentration) in the incubation mixture and allowing it to react for 30 min. The fluorescent signals (excitation/emission, 480 nm/525 nm) were continuously recorded by a microplate reader (SpectraMax iD3Molecular Devices, Austria). […]

The structures appear in SMILES notation. Like-named read-outs stand apart in the source and are kept apart here.

For the molecule `O=S(=O)(F)c1ccc(Br)cc1` [D, 4-bromobenzenesulfonyl fluoride], the “response to Notum” value on Notum was “no potent responses”. In addition, at hCES2A, the “selective inhibitory activity on hCES2A” value is given as “decent selective inhibitory activities”.
The IC50 is the midpoint of a concentration-inhibition curve. For the molecule `O=C(c1ccccc1)C(F)(F)F` [F, 2,2,2-trifluoroacetophenone], the “response to Notum” value on Notum is listed as “no potent responses”. Further, the “selective inhibitory activity on hCES2A” value on hCES2A is “decent selective inhibitory activities”. In addition, the IC50 on hCES2A (3 min incubation, read-out: hCES2A IC50 3 min) was 160 ± 18.4 nM; on hCES2A (33 min incubation, read-out: hCES2A IC50 33 min) it was 336 ± 37.2 nM. On hCES2A (3 min vs 33 min incubation), the “time-dependent inhibition against hCES2A” value is given as “no significant time-dependent inhibition”.
